Data: paper PMC12040169 (PLOS Biology, 2025)

Test: in vitro
Settings: human, hela cells, % viability

Structure (SMILES)	viability at 28.5 h, 10 µM
Cc1nc2nc(N)nn2c(C)c1CCC(=O)NCc1cccc(Cl)c1 [CBK304993]	87.5%
CCOC(=O)COc1ccc2nsnc2c1Cl [CBK025603]	91.4%
Fc1ccc(OCc2ccc(-c3nnn[nH]3)cc2)cc1 [CBK267859]	106%
CCc1nc(C)ccc1O [CBK026535C]	91%
O=C(Nc1ccc(N2CCNCC2)nc1)C1(c2ccccc2)CCCCC1 [CBK028269T]	97.8%
N=C(N)NCC(=O)N(CCCc1cc(C(F)(F)F)cc(C(F)(F)F)c1)c1ccc2c(c1)OCO2 [CBK000702T]	80.1%
CCN(Cc1nccn1CC)[C@H]1CCO[C@@H](c2ccccc2-c2ccc(OC)cc2)C1 [CBK285852]	101%
CC(=O)Nc1ccc(NC(=O)c2cnc(-c3cccc(C)c3)c(-c3ccncc3)c2)cc1C(F)(F)F [CBK036660]	49.6%
COCCN1C(=O)CO[C@H]2CN(C(=O)Nc3ccc(F)cc3)C[C@H]21 [CBK289705]	85.3%
OCCN1CC2(CCN(CCc3cccc4ccccc34)CC2)c2ccccc21 [CBK137013]	106%
Fc1cccc(-c2nnc(SCc3nc4ccccc4[nH]3)n2-c2ccccc2)c1 [CBK263256]	95.3%
Cc1ccc(NS(=O)(=O)c2ccc(OCC(=O)N3CCN(C)CC3)c(C)c2)cc1 [CBK267834]	110%
CC(C)(O)C#Cc1ccc(C(=O)NCCc2ccc(S(N)(=O)=O)cc2)cc1 [CBK263110]	98.2%
O=C(O)CCSc1nnc2[nH]c3ccccc3n12 [CBK265736]	108%
CN(C)CCN1CCN(c2nc(Br)cn3ccnc23)CC1 [CBK037501]	91.3%
Cc1csc(Sc2cc(N3CCCC3)ncn2)n1 [CBK093745]	100%
Cc1c(C(=O)N(C)Cc2csc3ccccc23)nnn1C1CCNCC1 [CBK304103]	84.6%
CN(C)CCN(C)c1nc(-c2ccc(C(C)(C)C)cc2)cn2ccnc12 [CBK066477]	107%
COc1ccc(NC(=O)N[C@@H]2CC[C@@]3(c4ccc(OC)c(OC)c4)CCN(C)[C@H]3C2)c(C)c1 [CBK036460T]	97.2%
Cc1nc2ccccc2n1CC(=O)NCCN1CCCC1 [CBK267336]	113%
Cc1nc(COc2ccc(Cl)cc2)sc1C(=O)N1CCCCC1C(=O)O (stereo not shown) [CBK304233]	87.9%
c1cc(-c2cnc(N3CCOCC3)c3nccn23)c2cccnc2c1 [CBK091270]	93.6%

Structure (SMILES)	viability at 28.5 h, 10 µM
Cc1cccc(NC(=O)C2CC(=O)N=C(Nc3nc4ccccc4s3)N2)c1 (stereo not shown) [CBK264362]	108%
CC(C)CCCC(C)NC(=O)COc1cc(C(=O)O)cc(C(=O)O)c1 (stereo not shown) [CBK296646]	86.8%
Clc1ccc(COc2nccnc2OCC2CCCO2)cc1Cl (stereo not shown) [CBK161587]	105%
CCN1CCC2(C/C=C/CNC(=O)c3ccccc3OCCN(C)C2=O)CC1 [CBK292061]	102%
CCOCCCNc1c2c(c(C#N)c3nc4ccccc4n13)CCC2 [CBK263151]	93.5%
NCCCOc1cncc(N2CCCC2)n1 [CBK115603]	96.8%
CC(=O)Nc1ccc(CNC(=O)c2cc(C)n(CC(F)(F)F)c2C)cc1 [CBK304523]	79.2%
Cc1cc(C)c(OCC(=O)Nc2cc(-c3nc4ncccc4o3)ccc2C)c(Cl)c1 [CBK072887]	92.7%
CCC(=O)c1c(CC)n[nH]c1-c1c(Cl)cccc1Cl [CBK107819]	96.1%
Cc1ccc(NC(=O)COc2ccccc2)c(NC(=O)c2ccccc2I)c1 [CBK266793]	98.2%
CC(=O)N1CC[C@H](c2nc3ccc(C#N)cc3[nH]2)C1 [CBK289378]	108%
O=C(O)CN1C(=O)c2ccc(C(=O)c3ccc4c(c3)C(=O)N(CC(=O)O)C4=O)cc2C1=O [CBK262166]	82.3%
COc1ccc(NC(=O)Nc2nn(Cc3c(F)cccc3Cl)cc2Br)c(OC)c1 [CBK266834]	83.8%
O=C(O)c1ccc(N2N=C(c3ccccc3)/C(=C\c3cccc([N+](=O)[O-])c3O)C2=O)cc1 [CBK265615]	102%
COc1ccc(OC)c(NC(=O)CSc2nnc(-c3ccc(N)cc3)n2C)c1 [CBK265872]	106%
CC(C)(CNC(=O)c1ccc(=O)n(CC(=O)Nc2ccc(F)cc2)c1)c1cccc(F)c1 [CBK285955]	86.7%
Cc1cc(COc2nccnc2N2CCN(CCCO)CC2)no1 [CBK084197]	89.6%
O=C(CSc1nnc(Cc2ccccc2)n1-c1ccc(Cl)cc1)Nc1cc(Cl)ccc1O [CBK269061]	99.9%
c1ccc(COc2ccc(-c3cc(Nc4ccc5[nH]ccc5c4)ncn3)cc2)cc1 [CBK090857]	111%
Nc1ccc(-c2nc(NC(=O)Cc3ccccc3)cnc2-c2ccc(F)c(Cl)c2)cc1 [CBK036690]	89.5%
Cc1cc(Cl)ccc1NC(=O)CN1CCN(Cc2ccccc2)CC1 [CBK269438]	93.6%
N=C(N)NS(=O)(=O)c1ccc(N/C=C\C(=O)c2ccncc2)cc1 [CBK264185]	91.8%

Structure (SMILES)	viability at 28.5 h, 10 µM
Cc1cccc(OCCn2cncc2-c2cn(C)nc2C)c1C [CBK281458]	112%
Cn1cc(C(=O)NCC(c2ccccc2F)N2CCCC2)ccc1=O (stereo not shown) [CBK281950]	83.9%
Cc1nn(C)c(Oc2ccccc2OCc2ccccc2)c1[N+](=O)[O-] [CBK000281]	102%
O=C(NCC1CCCO1)c1sc2ccccc2c1Cl (stereo not shown) [CBK058604]	93.3%
COc1cc(-c2cncc(Nc3cccc(C(F)(F)F)c3)n2)cc(OC)c1OC [CBK065213]	120%
O=C(Nc1cc2ccccc2c(N2CCNCC2)n1)c1ccccc1 [CBK028423T]	104%
COc1nccnc1N1CCN(Cc2ccc([N+](=O)[O-])cc2)CC1 [CBK084217]	103%
O=c1nc(NN=C2CCCCC2)cn[nH]1 [CBK018838]	90.8%
Cn1cc(C2CNCCN2C(=O)c2coc3ccccc23)cn1 (stereo not shown) [CBK304270C]	87%
Nc1ncc(-c2ccccc2CO)nc1Nc1ccc2[nH]ccc2c1 [CBK063843]	109%
Cc1ccc2cc(CN(CCN(C)C)C(=S)Nc3ccccc3)c(=O)[nH]c2c1 [CBK134909]	104%
Clc1nc2ccccc2nc1OCCOc1ccccc1 [CBK113367]	108%
O=C(Nc1cccc(C(=O)O)c1)/C(=C\c1ccc2c(c1)OCO2)NC(=O)c1ccc(Br)o1 [CBK263720]	99%
CC(=O)NCCn1cc2c(n1)[C@H]1CN(C(=O)C3CCC3)C[C@H]1CC2 [CBK284584]	107%
CC[C@H](C)[C@H](NC(=O)C1CCN(S(=O)(=O)c2ccc(Cl)c(C(F)(F)F)c2)CC1)C(=O)O [CBK297117]	91.5%
CC(C)C(=O)N1CC2(CCN(Cc3ncc[nH]3)CC2)c2ccccc21 [CBK126731]	109%
Cc1nn(C(C)CC(=O)NCCN2CCc3ccccc32)c(C)c1C (stereo not shown) [CBK282675]	87.1%
N#CCc1ccc(Nc2cc(-c3cccc(N)c3)ncn2)cc1 [CBK091187]	96.7%
Cn1ccnc1CN1CCCN(C(=O)c2cccc(C#N)c2)CC1 [CBK303998]	85.2%
O=C(O)CN(c1ccc([N+](=O)[O-])cc1)S(=O)(=O)c1ccccc1 [CBK263782]	92.7%
CSCCN1CCC(Oc2nccnc2OCC2COc3ccccc3O2)CC1 (stereo not shown) [CBK082996T]	92.7%
Nc1ncnc2c1nc(Br)n2[C@H]1C[C@@H](O)[C@@H](CO)O1 [CBK201240]	103%

Structure (SMILES)	viability at 28.5 h, 10 µM
CC(C)c1c(O)c2ccccc2[nH]c1=O [CBK159988]	89.4%
CN(CC(=O)N1CCN(Cc2ccc3c(c2)OCO3)CC1)S(=O)(=O)c1ccccc1 [CBK265791]	87%
O=C(c1n[nH]c2c1CCCC2)N1CCc2ncc(Cl)cc2C1 [CBK284975]	93.4%
COc1ccc(C(=O)N2CC[C@H]3NC(=O)N(Cc4ccccc4)C(=O)[C@H]32)cc1 [CBK289293]	94.1%
CC[C@H]1CN(C(C)=O)CC[C@H]1CC(=O)Nc1nccs1 [CBK289130]	97.8%
Fc1ccc(-c2cncc(NCc3ccncc3)n2)cc1Cl [CBK065343]	94.7%
Cn1c2c(ccc1=O)CCCCC2 [CBK005987]	92%
Cn1cnc2ccc(NC(=O)CC3CCN(C(=O)CC4CCCCC4)CC3)cc21 [CBK285961]	84.1%
Cc1ncc(CN2CCOC(c3cc(C(=O)NCC(C)C)c4ccccc4n3)C2)s1 (stereo not shown) [CBK285897]	89.9%
CCN(CC)C(=O)CN(CCc1ccc(OC)c(OC)c1)C(=O)NCCN1CCOCC1 [CBK158734]	93.1%
O=C(NCCN1CCC(O)(c2ccc(F)cc2)CC1)c1ccco1 [CBK283166]	99.3%
CCOc1ccccc1CNc1ccc(C2c3ccsc3CCN2C(C)=O)cc1 (stereo not shown) [CBK286459]	104%
Cn1ccnc1Sc1cc(C(F)(F)F)ccn1 [CBK093798]	80.5%
NC1CCC(Nc2cncc(-c3ccc(F)c(Cl)c3)n2)CC1 (stereo not shown) [CBK037893]	99.6%
Cc1ccc(-c2nccnc2OCc2ccccc2)cc1C [CBK106861]	90.8%
CC1CCN(S(=O)(=O)c2ccc(NC(=O)COc3ccc4ccccc4c3)cc2)CC1 [CBK264969]	96.7%
CCOC(=O)C1(Cc2cc(-c3ccc(F)cc3)no2)CCCNC1 (stereo not shown) [CBK284579]	84%
O=C(Nc1cc2ccccc2c(Br)n1)N[C@@H]1C[C@H]1c1ccccc1 [CBK063276]	92.3%
Cc1nn(-c2ccccc2)c(C)c1CNC(=O)C1C2C=CC(C2)C1C(=O)O (stereo not shown) [CBK286877]	90.4%
CCOC(=O)C(NC(=O)c1cc[nH]c(=O)c1)c1cccc(C)c1C (stereo not shown) [CBK304174]	97.1%

Same assay, conditions: human, hela cells, % viability, bulk resorufin, single well

Structure (SMILES)	viability at 28.5 h, 10 µM
CCOC(=O)C1(c2ccccc2)CCN(C(=O)c2ccc3ncccc3c2)CC1 [CBK132206]	107%
O=C(COc1ccc(C=C2C(=O)NC(=O)NC2=O)cc1)NCC1CCCO1 (stereo not shown) [CBK263709]	91.9%
